Assay results: ChEMBL document CHEMBL5143577, “Development of a degrader against oncogenic fusion protein FGFR3-TACC3” (Bioorg Med Chem Lett, 2022)
Calls of active or inactive are those of the source. The rule behind the calls is not given here.

Experiments:
RT-4 [1] = experiment: Sniper activity at FGFR3-TACC3 in human RT4 cells assessed as decrease in FGFR3-TACC3 protein level at 3 uM after 6 hrs; format: cell-based
RT-4 [2] = experiment: Sniper activity at FGFR3-TACC3 in human RT4 cells assessed as decrease in FGFR3-TACC3 protein level at 30 uM after 6 hrs; format: cell-based
RT-4 [3] = experiment: Sniper activity at FGFR3-TACC3 in human RT4 cells assessed as decrease in FGFR3-TACC3 protein level at 3 uM after 6 hrs in presence of siRNA XIAP; format: cell-based
RT-4 [4] = experiment: Antiproliferative activity against human RT-4 cells expressing FGFR3-TACC3 at 3 uM measured after 72 hrs by WST assay; format: functional, cell-based

| Compound | Activity (RT-4 [1]) | Activity (RT-4 [2]) | Activity (RT-4 [3]) | Activity (RT-4 [4]) |
| --- | --- | --- | --- | --- |
| CN[C@@H](C)C(=O)N[C@H](C(=O)N1C[C@@H](Oc2cccc(OCCOCCOCCOCCNC(=O)c3ccc(-c4nc(CNc5nccc(NCC(C)C)n5)cs4)cc3)c2)C[C@H]1C(=O)N[C@@H]1CCCc2ccccc21)C1CCCCC1 | Active |  |  |  |
| CN[C@@H](C)C(=O)N[C@H](C(=O)N1C[C@@H](Oc2cccc(OCCOCCOCCOCCOCCNC(=O)c3ccc(-c4nc(CNc5nccc(NCC(C)C)n5)cs4)cc3)c2)CC1C(=O)N[C@@H]1CCCc2ccccc21)C1CCCCC1 (some centres not stated) | Active |  |  |  |
| CC(C)CNc1ccnc(NCc2csc(-c3ccc(C(=O)NCCOCCOCCOCCNC(=O)[C@H](CC(C)C)NC(=O)[C@@H](O)[C@H](N)Cc4ccccc4)cc3)n2)n1 |  | Active |  |  |
| CN[C@@H](C)C(=O)N[C@H](C(=O)N1CCC[C@H]1c1nc(C(=O)c2cccc(OCCOCCOCCOCCNC(=O)c3ccc(-c4nc(CNc5nccc(NCC(C)C)n5)cs4)cc3)c2)cs1)C1CCCCC1 | Active |  |  |  |
| CN[C@@H](C)C(=O)N[C@H](C(=O)N1CCC[C@H]1c1nc(C(=O)c2cccc(OCCOCCOCCNC(=O)c3ccc(-c4nc(CNc5nccc(NCC(C)C)n5)cs4)cc3)c2)cs1)C1CCCCC1 | Active |  | Active | Active |
